Experimental data reported in PubChem BioAssay AID493223 (Johns Hopkins Ion Channel Center, 2011).
Calls of active or inactive are those of the source.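 How the source made its calls: active means compound that raises the TRPC4 channel signal at some tested dose, with a fitted concentration curve; inactive means the rest.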

Each compound was assayed against Transient receptor potential cation channel C4 (TRPC4), mouse (assay: potentiators of mouse TRPC4 calcium response – cell-based, HEK293 TRPC4, Fluo-4 calcium flux, dose response (AID 493223)). Settings: HEK293 TRPC4 cells, Fluo-4 calcium fluorescence ratio.

| Structure (SMILES) | EC50 |
| --- | --- |
| CN(C)CCN(C)Cc1cc(Br)ccc1O | 1.78 µM |
| CCN1CCN(Cc2cc(Br)ccc2O)CC1 | 0.86 µM |

Same assay, conditions: HEK293 TRPC4 cells, Fluo-4 calcium fluorescence ratio; at 20 µM (top of the series)

| Structure (SMILES) | fluorescence ratio, higher = potentiation |
| --- | --- |
| Oc1ccc(F)cc1CN1CCCCC1 | inactive |
| Oc1ccc(F)cc1CN1CCN(c2ccncc2)CC1 | inactive |
| CCN(CC)Cc1cc(Br)ccc1O | inactive |
| CC(C)(C)OC(=O)N1CCN(Cc2cc(Cl)ccc2O)CC1 | inactive |
| CN1CCN(Cc2cc(F)ccc2O)CC1 | inactive |
| CCN(CC)Cc1cc(Cl)ccc1O | inactive |
| CC1CCN(Cc2cc(Cl)ccc2O)CC1 | inactive |
| Oc1ccc(Cl)cc1CN1CCN(CC2CCCO2)CC1 (stereo not drawn) | inactive |
| Oc1ccc(Cl)cc1CN1CCN(c2ncccn2)CC1 | inactive |
| CC1CC(C)CN(Cc2cc(F)ccc2O)C1 (stereo not drawn) | inactive |
| Oc1ccc(Cl)cc1CN1CCN(c2ccncc2)CC1 | inactive |
| Oc1ccc(Br)cc1CN1CCN(c2ccncc2)CC1 | inactive |
| Oc1ccc(Br)cc1CN1CCOc2ccccc21 | inactive |
| CC(C)(C)OC(=O)N1CCN(Cc2cc(F)ccc2O)CC1 | inactive |
| COc1ccc(N2CCN(Cc3cc(Cl)ccc3O)CC2)cc1 | inactive |
| Oc1ccc(Br)cc1CN1CCOCC1 | inactive |
| CC1CC(C)CN(Cc2cc(Br)ccc2O)C1 (stereo not drawn) | inactive |
| CC(C)(C)OC(=O)N1CCN(Cc2cc(Br)ccc2O)CC1 | inactive |
| Oc1ccc(Br)cc1CN1CCC(N2CCOCC2)CC1 | inactive |
| Oc1ccc(Cl)cc1CN1CCCCC1 | inactive |
| Oc1ccc(Br)cc1CN1CCCCC1 | inactive |
| Oc1ccc(Cl)cc1CN1CCN(c2ccccn2)CC1 | inactive |
| CN1CCN(Cc2cc(Cl)ccc2O)CC1 | inactive |
| Oc1ccc(F)cc1CN1CCOCC1 | inactive |
| Oc1ccc(Br)cc1CN1CCN(c2ccc(F)cc2F)CC1 | inactive |
| CC1CC(C)CN(Cc2cc(Cl)ccc2O)C1 (stereo not drawn) | inactive |

| Structure (SMILES) | fluorescence ratio, higher = potentiation |
| --- | --- |
| Oc1ccc(Br)cc1CN1CCN(CC2CCCO2)CC1 (stereo not drawn) | inactive |
| Oc1ccc(F)cc1CN1CCOc2ccccc21 | inactive |
| COCCN(C)Cc1cc(F)ccc1O | inactive |
| COc1ccc(N2CCN(Cc3cc(Br)ccc3O)CC2)cc1 | inactive |
| Oc1ccc(Cl)cc1CN1CCN(c2ccc(F)cc2F)CC1 | inactive |
| Oc1ccc(F)cc1CN1CCC(N2CCOCC2)CC1 | inactive |
| Oc1ccc(Br)cc1CN1CCN(c2ccccn2)CC1 | inactive |
| Oc1ccc(Br)cc1CN1CCN(c2ncccn2)CC1 | inactive |
| Oc1ccc(Cl)cc1CN1CCC(N2CCOCC2)CC1 | inactive |
| COCCN(C)Cc1cc(Cl)ccc1O | inactive |
| Oc1ccc(Br)cc1CN1CCCC1 | inactive |
| Oc1ccc(F)cc1CN1CCN(c2ccc(F)cc2F)CC1 | inactive |
| Oc1ccc(F)cc1CN1CCN(c2ccccn2)CC1 | inactive |
| CC1CCN(Cc2cc(F)ccc2O)CC1 | inactive |
| CN(C)CCN(C)Cc1cc(F)ccc1O | inactive |
| COc1ccc(N2CCN(Cc3cc(F)ccc3O)CC2)cc1 | inactive |
| CC1CCN(Cc2cc(Br)ccc2O)CC1 | inactive |
| Oc1ccc(F)cc1CN1CCCC1 | inactive |
| Oc1ccc(F)cc1CN1CCN(c2ncccn2)CC1 | inactive |
| Oc1ccc(Cl)cc1CN1CCOc2ccccc21 | inactive |
| Oc1ccc(Cl)cc1CN1CCCC1 | inactive |
| COCCN(C)Cc1cc(Br)ccc1O | inactive |
| Oc1ccc(F)cc1CN1CCN(CC2CCCO2)CC1 (stereo not drawn) | inactive |
| CCN(CC)Cc1cc(F)ccc1O | inactive |
| CN1CCN(Cc2cc(Br)ccc2O)CC1 | inactive |
